Source: patent US5191079A, “Quinolinecarboxylic acid derivatives” (priority 1990, dated 1993)
In brackets after ≈: the same amount, converted by molar mass. Counter-ions that a name gives are not always drawn. Like-named read-outs stand apart in the source and are kept apart here.

What was measured:
[1] = test system: Staphylococcus aureus IID 803; test: Effect on treatment of general infectious disease (systemic infection in mice), Experiment 3; type: in vivo, Staphylococcus aureus; ddY male mice; details: for protective effects against infection: Experiment 3, in words; for ED50: Staphylococcus aureus, IID803, 168 h, oral, 1 h after i.p. infection, mice, survival after one week, average of several tests, read-out: 50% effective dose (ED50)
Procedure: Staphylococcus aureus IID 803
The test microorganism was subjected to standing culture in Brain heart infusion broth (manufactured by DIFCO) at 37° C. for 16 to 18 hours. The culture was then diluted with PBS (Dulbecco's phosphate buffered saline) to adjust the concentration of bacteria to 4×10^7 -8×10^7 CFU/ml. The mixture was mixed with an equivalent amount of 10% (w/v) Mucin (BACTO MUCIN BACTERIOLOGICAL, manufactured by Difco Co.) to prepare a bacterial suspension. The thus prepared bacterial suspension (0.5 ml each) was intraperitoneally inoculated to ddY male mice (5 weeks age, weighing 24-27 g, 5 mice in each group), to infect the animals, by which systemic infectious model was prepared.
The mice were daily observed for one week, and from the survival number of mice after one week, the 50% effective dose (ED50) was calculated by Weil method. This test was repeated several times and the average of ED50 was calculated.

[2] = test system: clinically isolated Staphylococcus aureus; test: In vitro antibacterial activity against clinical isolates, Experiment 2; type: cell-based
Procedure: (§1) The above solutions were then diluted with sterilized distilled water to prepare a standard solution with a concentration of the test compound: 1000 μg/ml each.
(§2) For the preculture of each microorganism, there was used as the medium a sensitivity test broth (manufactured by Nissui Seiyaku K. K., Japan), and for the measurement of MIC, there was used a sensitivity test agar medium (manufactured by Nissui Seiyaku K. K.).
(§3) The clinically isolates used above were isolated from Nov. 1988 to Jun. 1989 and were obtained from Research Section, Tokyo Clinical Research Center.

[3] = test system: clinically isolated Enterococcus faecium; test: as above; type: cell-based
Procedure: as §1, §2, §3

[4] = test system: clinically isolated Enterococcus faecalis; test: as above; type: cell-based
Procedure: as §1, §2, §3

[5] = test system: clinically isolated Staphylococcus epidermidis; test: as above; type: cell-based; details: for MIC / MIC50 / MIC90: Staphylococcus epidermidis
Procedure: as §1, §2, §3

[6] = test system: Staphylococcus epidermidis IAM 1296; test: MIC, Experiment 1; type: cell-based; details: IAM1296, S. epidermidis IAM 1296, Gram +, read-out: Min. inhib. concentr. (MIC)
Procedure: The compounds of the present invention ([…] and Q) were each dissolved in dimethylsulfoxide to prepare a solution of 5000 μg/ml in concentration. The compounds of the present invention (I, J and K) and the known compound (Y) were each dissolved in sterilized distilled water to prepare a solution of 5000 μg/ml in concentration. […] The test was carried out by a method as appointed by Japan Society of Chemotherapy [cf. Chemotherapy, 29, 76-79 (1981), TOKYO]. As to Streptococcus pneumoniae and Streptococcus pyogenes, Brain heart infusion broth (manufactured by DIFCO) was used as the medium for the preculture thereof, and a heart infusion agar medium containing 5% defibrinated horse blood (manufactured by Nissui Seiyaku K. K., Japan) was used as the medium for the measurement of minimum inhibitory concentration (MIC). As to other microorganisms, a sensitivity test broth (manufactured by Nissui Seiyaku K. K.) was used as the medium for the preculture thereof, and a sensitivity test agar medium (manufactured by Nissui Seiyaku K. K.) was used as the medium for the measurement of MIC.

[7] = Acute toxicity, Experiment 5; type: in vivo; details: oral, 2000 mg/kg, one week
Procedure: The compound (A) or (B) of the present invention was suspended in distilled water to prepare a suspension in concentration of 200 mg/ml and the compound (C) was suspended in distilled water to prepare a suspension in concentration of 100 mg/ml. The suspension was orally administered to ddY male mice (5 weeks age, weighing 19 to 24 g, 5 mice in each group), which had been fasted for 18 hours, at a rate of 2000 mg/kg body weight of the test compound.

bone marrow = test: Micronucleus test, Experiment 8; type: in vivo, ICR male mice; details: oral 300, 1000, 3000 mg/kg, mouse bone marrow, 24 or 48 hours
Procedure: The compound (B) or (E) of the present invention was suspended in 1% aqueous gum arabic. The suspension was orally administered to ICR male mice (7-8 weeks age, weighing 30 to 39 g, 5 mice in each group) at a rate of 3000, 1000 or 300 mg/kg body weight of the test compound (B) or (E). After 24 hours or 48 hours, these mice were killed and the bone marrow was collected and observed the presence of micronuclei.

[8] = 25 clinical strains S. aureus incl. 16 methicillin resistant
[9] = 25 clinical strains S. aureus incl. 16 methicillin resistant, 50% of strains, read-out: MIC50
[10] = 25 clinical strains S. aureus incl. 16 methicillin resistant, 90% of strains, read-out: MIC90
[11] = 25 clinical strains E. faecium, 90% of strains, read-out: MIC90
[12] = 25 clinical strains E. faecalis
[13] = 25 clinical strains E. faecalis, 90% of strains, read-out: MIC90
[14] = 25 clinical strains S. epidermidis
[15] = 25 clinical strains S. epidermidis, 50% of strains, read-out: MIC50
[16] = 25 clinical strains S. epidermidis, 90% of strains, read-out: MIC90
[17] = 25 clinical strains E. faecalis, 50% of strains, read-out: MIC50

Structure (SMILES)	protective effects against infection [1]	ED50 [1]	MIC [2, 8]	MIC50 [2, 9]	MIC90 [2, 10]	MIC50 [3]	MIC ([3]; 25 clinical strains E. faecium)	MIC90 [3, 11]	MIC50 [4]	MIC [4, 12]	MIC90 [4, 13]	MIC [5, 14]	MIC50 [5, 15]	MIC90 [5, 16]	MIC [6]	MIC50 [4, 17]	death of mice [7]	MIC90 [4]	MIC90 [2]	MIC90 [3]	also measured
COCC1CN(c2c(F)cc3c(=O)c(C(=O)O)c4scc5n4c3c2N(C)C5)CCN1C (stereo not drawn) [Compound (J), 9,1-(Methylimino)methano-7-fluoro-8-(3-methoxymethyl-4-methyl-1-piperazinyl)-5-oxo-5H-thiazolo[3,2-a]quinoline-4-carboxylic acid hydrochloride]	excellent protective effects against infection	4.4 mg/kg	0.05 to 6.25 µg/mL	0.1 µg/mL	3.13 µg/mL	3.13 µg/mL	0.39 to 25 µg/mL	12.5 µg/mL	0.39 µg/mL	0.2 to 12.5 µg/mL	12.5 µg/mL	0.05 to 6.25 µg/mL	0.1 µg/mL	3.13 µg/mL	0.2 µg/mL						
CC1CN(c2c(F)cc3c(=O)c(C(=O)O)c4scc5n4c3c2N(C)C5)CCO1 (stereo not drawn) [Compound (A), 9,1-(Methylimino)methano-7-fluoro-8-(2-methylmorpholino)-5-oxo-5H-thiazolo[3,2-a]quinoline-4-carboxylic acid]	excellent protective effects against infection	3.5 mg/kg	0.006 to 0.2 µg/mL (≈ 0.0149 to 0.496 µM)	≤ 0.006 µg/mL	0.2 µg/mL (≈ 0.496 µM)		0.05 to 6.25 µg/mL (≈ 0.124 to 15.5 µM)	3.13 µg/mL (≈ 7.76 µM)		0.025 to 3.13 µg/mL (≈ 0.062 to 7.76 µM)	3.13 µg/mL (≈ 7.76 µM)	0.006 to 0.39 µg/mL (≈ 0.0149 to 0.967 µM)	0.013 µg/mL (≈ 0.0322 µM)	0.2 µg/mL (≈ 0.496 µM)	0.05 µg/mL (≈ 0.124 µM)	0.1 µg/mL (≈ 0.248 µM)	no death of mice was observed				MIC50 ([3]; 25 clinical strains E. faecium, 50% of strains, read-out: MIC50): 0.78 µg/mL (≈ 1.93 µM)
CN1CCN(c2c(F)cc3c(=O)c(C(=O)O)c4scc5n4c3c2OC5)CC1 [Compound (Y), 9,1-Epoxymethano-7-fluoro-8-(4-methyl-1-piperazinyl)-5-oxo-5H-thiazolo[3,2-a]quinoline-4-carboxylic acid hydrochloride, reference compound]		10.8 mg/kg	0.05 to 12.5 µg/mL	0.2 µg/mL	12.5 µg/mL	3.13 µg/mL	0.39 to 12.5 µg/mL	6.52 µg/mL	0.39 µg/mL	0.2 to 6.25 µg/mL			0.1 µg/mL	12.5 µg/mL	0.39 µg/mL			6.25 µg/mL			MICrange [5, 14]: 0.025 to 25 µg/mL
CN1Cc2csc3c(C(=O)O)c(=O)c4cc(F)c(N5CCOC(CO)C5)c1c4n23 (stereo not drawn) [Compound (B), 9,1-(Methylimino)methano-7-fluoro-8-(2-hydroxymethylmorpholino)-5-oxo-5H-thiazolo[3,2-a]quinoline-4-carboxylic acid]	excellent protective effects against infection	5.1 mg/kg	0.006 to 0.78 µg/mL (≈ 0.0143 to 1.86 µM)	0.013 µg/mL (≈ 0.031 µM)		1.56 µg/mL (≈ 3.72 µM)	0.1 to 25 µg/mL (≈ 0.238 to 59.6 µM)			0.05 to 3.13 µg/mL (≈ 0.119 to 7.46 µM)	3.13 µg/mL (≈ 7.46 µM)	0.006 to 0.78 µg/mL (≈ 0.0143 to 1.86 µM)		0.39 µg/mL (≈ 0.93 µM)	0.05 µg/mL (≈ 0.119 µM)	0.2 µg/mL (≈ 0.477 µM)	no death of mice was observed		0.78 µg/mL (≈ 1.86 µM)	6.25 µg/mL (≈ 14.9 µM)	micronucleus inducing activity (bone marrow): no nucleus inducing activity; MIC50 [5]: 0.025 µg/mL (≈ 0.0596 µM)
CN1Cc2csc3c(C(=O)O)c(=O)c4cc(F)c(N5CCN6CCOC[C@H]6C5)c1c4n23 [Compound (F), 9,1-(Methylimino)methano-7-fluoro-8-[(6R)-1,8-diaza-4-oxabicyclo[4.4.0]deca-8-yl]-5-oxo-5H-thiazolo[3,2-a]quinoline-4-carboxylic acid]	excellent protective effects against infection	2.3 mg/kg	0.013 to 0.78 µg/mL (≈ 0.0292 to 1.75 µM)			1.56 µg/mL (≈ 3.51 µM)	0.2 to 6.25 µg/mL (≈ 0.45 to 14.1 µM)			0.05 to 6.25 µg/mL (≈ 0.112 to 14.1 µM)		0.013 to 1.56 µg/mL (≈ 0.0292 to 3.51 µM)	0.05 µg/mL (≈ 0.112 µM)		0.05 µg/mL (≈ 0.112 µM)	0.2 µg/mL (≈ 0.45 µM)		6.25 µg/mL (≈ 14.1 µM)	0.78 µg/mL (≈ 1.75 µM)	6.25 µg/mL (≈ 14.1 µM)	MIC50 [2]: 0.025 µg/mL (≈ 0.0562 µM); MIC90 [5]: 0.78 µg/mL (≈ 1.75 µM)
COC[C@H]1CN(c2c(F)cc3c(=O)c(C(=O)O)c4scc5n4c3c2N(C)C5)CCO1 [Compound (P), 9,1-(Methylimino)methano-7-fluoro-8-[(2R)-2-methoxymethylmorpholino)-5-oxo-5H-thiazolo[3,2-a]quinoline-4-carboxylic acid]			0.006 to 0.78 µg/mL (≈ 0.0138 to 1.8 µM)	0.013 µg/mL (≈ 0.03 µM)		3.13 µg/mL (≈ 7.22 µM)	0.2 to 12.5 µg/mL (≈ 0.461 to 28.8 µM)	12.5 µg/mL (≈ 28.8 µM)		0.1 to 6.25 µg/mL (≈ 0.231 to 14.4 µM)		0.006 to 0.78 µg/mL (≈ 0.0138 to 1.8 µM)	0.05 µg/mL (≈ 0.115 µM)	0.39 µg/mL (≈ 0.9 µM)	0.05 µg/mL (≈ 0.115 µM)	0.2 µg/mL (≈ 0.461 µM)		6.25 µg/mL (≈ 14.4 µM)	0.78 µg/mL (≈ 1.8 µM)		
